Experimental data from article PMC12431657, “Discovery and mechanistic insights of dibenzoylmethane as a broad spectrum inhibitor of coronavirus” (PLOS Pathogens, 2025).
Several values for one entry are separate records, joined by “and”; a condition that tells them apart may be missing. Identical values can stand only once.

Assays:
[1] = system: HCoV-229E; experiment: Antiviral activity in vitro, viral RNA copies by qRT-PCR, HCoV-229E in Huh-7 cells; format: cell-based; conditions: for EC50 (229E, Huh-7): inhibition at the concentration: replicates
[2] = in vivo; conditions: Sprague-Dawley, rat, po, 200 mg/kg
[3] = system: HCoV-OC43; experiment: Antiviral activity of DBM in the presence of IFN signalling suppressants; format: cell-based
Description: Fig 6 DBM-mediated downregulation of caspase-6 restores IFN signalling suppressed by the coronavirus nucleocapsid protein. A) Intracellular levels of HCoV-OC43 nucleocapsid proteins and caspase-6 in HCoV-OC43-infected cells treated with serially diluted DBM or Z-VEID-FMK. Cells were pretreated with gradient-diluted DBM or Z-VEID-FMK prior to viral infection. B) Inhibitory effects of DBM against HCoV-OC43 and EV71. Cells were pre-treated with gradient-diluted DBM for 1 hour before inoculated with HCoV-OC43 or EV71, respectively. C) Attenuation of antiviral effects of DBM in IFN signalling-deficient cell lines. HEK293T-AT and Vero E6 cells were pre-treated with gradient-diluted DBM for 1 hour before infection. […] Cells were pretreated with gradient-diluted DBM or Z-VEID-FMK for 24 h, and then transfected with coronaviruses nucleocapsid proteins expression plasmid, and after 16 h of transfection, cells were treated with DMSO or STS. E) DBM alleviated the suppression of IFNB1 expression induced by coronaviruses nucleocapsid proteins and caspase-6. Cells were pretreated with DMSO or DBM for 24 h, subsequently, transfected with Poly(I:C) and plasmids. F) Impact of IFN signalling suppressants on the antiviral activity of DBM. Cells were pretreated with DMSO, Ruxolitinib or IFN alpha-IFNAR-IN-1 hydrochloride, respectively, for 1 hour. Subsequently, a gradient dilution of DBM was added to the medium, and then HCoV-OC43 was inoculated into the cells. Data were statistically analysed with Student’s T test. *: p ≤ 0.05, **: p ≤ 0.01, ***: p ≤ 0.001, ****: p ≤ 0.0001; ns, not significant. The experiments were repeated three times independently with similar results.
On the basis of this finding, we hypothesized that DBM downregulates caspase-6, reduces the cleavage of nucleocapsid proteins, and thereby enhances IFN signalling to inhibit viral replication. To test this hypothesis, we incubated cells transfected with plasmids expressing coronavirus nucleocapsid proteins in the presence or absence of DBM or Z-VEID-FMK. […] As the reduction in cleaved nucleocapsid protein fragments could theoretically […] IFN signalling, we sought to investigate the relationship between DBM treatment and IFN signalling. To this end, we further transfected cells with plasmids expressing both caspase-6 and coronavirus nucleocapsid proteins, and subsequently incubated the cells with or without DBM. […] Whereas the other two apoptosis-executing caspases, caspase-3 and caspase-7, could not inhibit IFN signalling in a similar system (S8C Fig). Furthermore, we examined the expression of IFNB1 and its downstream IFN-stimulated genes following DBM treatment in the context of HCoV-OC43 infection (S8D and S8E Fig).

[4] = system: HCoV-229E; experiment: Antiviral activity in vitro, qRT-PCR, HCoV-229E in MRC-5 cells; format: cell-based; conditions: for HCoV-229E, MRC-5: inhibition at the concentration (Fig2B): replicates
[5] = molecular target: caspase-6 (Homo sapiens, UniProt P55212); format: cell-based; conditions: STS-treated cells
caspase-6, sequence (P55212 194-293): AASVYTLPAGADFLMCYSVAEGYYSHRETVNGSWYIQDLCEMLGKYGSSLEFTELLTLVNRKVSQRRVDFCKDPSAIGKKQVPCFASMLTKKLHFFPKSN
caspase-6, sequence (P55212 24-179): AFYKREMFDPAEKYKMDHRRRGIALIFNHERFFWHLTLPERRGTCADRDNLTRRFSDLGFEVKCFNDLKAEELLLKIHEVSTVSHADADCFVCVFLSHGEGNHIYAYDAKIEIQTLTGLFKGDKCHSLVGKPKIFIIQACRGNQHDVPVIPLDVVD

Which results are given for `O=C(CC(=O)c1ccccc1)c1ccccc1` [DBM, dibenzoylmethane]?
EC50 ([1]; Human coronavirus 229E, Huh-7, 24 h, read-out: EC50 HCoV-229E (Huh-7)): 6.71 µM; EC50 (229E, Huh-7): inhibition at the concentration ([1]; conc. 0.1 (unit not given)): 60.8 and 22.3 and 20.2; EC50 (229E, Huh-7): inhibition at the concentration ([1]; conc. 0.2 (unit not given)): 25.5 and 35.2; EC50 (229E, Huh-7): inhibition at the concentration ([1]; conc. 0.7 (unit not given)): 37.7 and 44.1; EC50 (229E, Huh-7): inhibition at the concentration ([1]; conc. 2.2 (unit not given)): 13.1 and 6.1 and 18.7; EC50 (229E, Huh-7): inhibition at the concentration ([1]; conc. 6.7 (unit not given)): 65 and 69.4 and 38.7; EC50 (229E, Huh-7): inhibition at the concentration ([1]; conc. 20 (unit not given)): 91.1 and 94.4 and 99.5; AUC(0-t) [2]: 34300 ng·h/mL; Cmax [2]: 4760 ng/mL; half-life [2]: 2.91 h; Viral RNA copies (Fig6F) ([3]; DBM 0.06, with DMSO): 8575323 and 7173199 and 8361273; Viral RNA copies (Fig6F) ([3]; DBM 0.06, with IFNi): 714000 and 1370000 and 1200000; Viral RNA copies (Fig6F) ([3]; DBM 0.19, with DMSO): 4042565 and 5441926 and 4875856; Viral RNA copies (Fig6F) ([3]; DBM 0.19, with IFNi): 1160000 and 961000 and 754000; Viral RNA copies (Fig6F) ([3]; DBM 0.19, with RUX): 1920000 and 2400000 and 1530000; Viral RNA copies (Fig6F) ([3]; DBM 0.56, with DMSO): 380096 and 713734 and 725626; Viral RNA copies (Fig6F) ([3]; DBM 0.56, with IFNi): 1150000 and 922000 and 1030000; Viral RNA copies (Fig6F) ([3]; DBM 0.56, with RUX): 1380000 and 2020000 and 2160000; Viral RNA copies (Fig6F) ([3]; DBM 1.67, with DMSO): 91512 and 73409 and 91292; Viral RNA copies (Fig6F) ([3]; DBM 1.67, with IFNi): 807000 and 1340000; Viral RNA copies (Fig6F) ([3]; DBM 1.67, with RUX): 2040000 and 3700000; Viral RNA copies (Fig6F) ([3]; DBM 5.00, with DMSO): 87392 and 81273 and 92455; Viral RNA copies (Fig6F) ([3]; DBM 5.00, with IFNi): 1300000 and 976000 and 920000; Viral RNA copies (Fig6F) ([3]; DBM 5.00, with RUX): 1880000 and 1760000 and 2040000; antiviral activity of DBM, cells pretreated with IFN alpha-IFNAR-IN-1 hydrochloride ([3]; HCoV-OC43): markedly reduced; antiviral activity of DBM, cells pretreated with ruxolitinib ([3]; HCoV-OC43): markedly reduced; EC50 ([4]; Human coronavirus 229E, MRC5, 24 h, read-out: EC50 HCoV-229E (MRC-5)): 0.7 µM; HCoV-229E, MRC-5: inhibition at the concentration (Fig2B) ([4]; conc. 0.1 (unit not given)): 0.8 and 1.1 and 0.3; HCoV-229E, MRC-5: inhibition at the concentration (Fig2B) ([4]; conc. 0.2 (unit not given)): 1.4 and -2.2 and 0.6; HCoV-229E, MRC-5: inhibition at the concentration (Fig2B) ([4]; conc. 0.7 (unit not given)): 17.4 and 32.7 and 56.6; HCoV-229E, MRC-5: inhibition at the concentration (Fig2B) ([4]; conc. 2.2 (unit not given)): 69.7 and 42.7 and 53.8; HCoV-229E, MRC-5: inhibition at the concentration (Fig2B) ([4]; conc. 6.7 (unit not given)): 86.0 and 92.7 and 89.8; HCoV-229E, MRC-5: inhibition at the concentration (Fig2B) ([4]; conc. 20.0 (unit not given)): 94.3 and 95.3 and 95.9; levels of cleaved HCoV-OC43 and SARS-CoV-2 nucleocapsid proteins [5]: significantly reduces
